How the values were obtained:
[1] = target: Voltage-gated potassium channel, KQT; KCNQ2(Kv7.2)/KCNQ3(Kv7.3) (Homo sapiens) (UniProt O43526+O43525); test: (§1) Activation of human Kv7.2/7.3 expressed in CHOK1 cells; type: cell-based; conditions: CHO-K1; as to max activation: test concentration or dose not given here
[2] = target: Voltage-gated potassium channel, KQT; KCNQ2(Kv7.2)/KCNQ3(Kv7.3) (Homo sapiens, UniProt O43525+O43526); test: as §1; type: cell-based, CHO-K1
MDCK = test: Efflux ratio of permeability from basolateral to apical over apical to basolateral side in MDCK cells transfected with MDR1; type: ADME, cell-based, Canis lupus familiaris; conditions: dog
[3] = Toxicity in human THLE cells assessed as ATP depletion; type: cell-based
[4] = Intrinsic clearance in human liver microsomes measured over 1 hr in presence of NADPH regenerating system; type: ADME; conditions: read-out: CLH
[5] = Permeability in dog RRCK cells after 2 hrs by transwell assay; type: ADME, cell-based, Canis lupus familiaris, MDCKII-LE; conditions: mdck, read-out: permeability
Liver microsome = test: Stability in human liver microsomes in absence of NADPH; type: ADME

Voltage-gated potassium channel, KQT; KCNQ2(Kv7.2)/KCNQ3(Kv7.3), sequence (O43526 whole entry): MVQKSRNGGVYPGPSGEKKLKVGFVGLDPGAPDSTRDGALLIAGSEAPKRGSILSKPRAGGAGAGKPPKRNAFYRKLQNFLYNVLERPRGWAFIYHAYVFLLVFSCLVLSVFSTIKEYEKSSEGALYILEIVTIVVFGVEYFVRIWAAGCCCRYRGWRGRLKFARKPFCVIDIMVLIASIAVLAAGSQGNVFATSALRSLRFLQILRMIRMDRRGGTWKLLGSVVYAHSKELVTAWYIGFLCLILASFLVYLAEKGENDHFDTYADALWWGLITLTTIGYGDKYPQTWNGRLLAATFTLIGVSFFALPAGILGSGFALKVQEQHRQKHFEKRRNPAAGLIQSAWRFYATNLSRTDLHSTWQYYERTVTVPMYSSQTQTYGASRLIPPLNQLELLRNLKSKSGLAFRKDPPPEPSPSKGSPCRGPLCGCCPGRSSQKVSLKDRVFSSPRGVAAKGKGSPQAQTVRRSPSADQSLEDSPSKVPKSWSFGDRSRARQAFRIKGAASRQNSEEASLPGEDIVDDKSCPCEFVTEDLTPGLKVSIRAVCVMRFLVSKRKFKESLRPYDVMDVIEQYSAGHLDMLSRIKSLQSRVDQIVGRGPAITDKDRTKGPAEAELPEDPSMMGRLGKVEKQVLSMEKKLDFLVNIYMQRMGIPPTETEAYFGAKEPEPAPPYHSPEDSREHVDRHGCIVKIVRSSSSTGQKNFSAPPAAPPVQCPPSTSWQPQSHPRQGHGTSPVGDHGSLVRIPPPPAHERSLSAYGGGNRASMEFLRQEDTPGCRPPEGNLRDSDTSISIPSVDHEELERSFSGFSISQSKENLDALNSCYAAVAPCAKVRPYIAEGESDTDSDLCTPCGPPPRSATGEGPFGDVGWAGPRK
Voltage-gated potassium channel, KQT; KCNQ2(Kv7.2)/KCNQ3(Kv7.3), sequence (O43525 whole entry): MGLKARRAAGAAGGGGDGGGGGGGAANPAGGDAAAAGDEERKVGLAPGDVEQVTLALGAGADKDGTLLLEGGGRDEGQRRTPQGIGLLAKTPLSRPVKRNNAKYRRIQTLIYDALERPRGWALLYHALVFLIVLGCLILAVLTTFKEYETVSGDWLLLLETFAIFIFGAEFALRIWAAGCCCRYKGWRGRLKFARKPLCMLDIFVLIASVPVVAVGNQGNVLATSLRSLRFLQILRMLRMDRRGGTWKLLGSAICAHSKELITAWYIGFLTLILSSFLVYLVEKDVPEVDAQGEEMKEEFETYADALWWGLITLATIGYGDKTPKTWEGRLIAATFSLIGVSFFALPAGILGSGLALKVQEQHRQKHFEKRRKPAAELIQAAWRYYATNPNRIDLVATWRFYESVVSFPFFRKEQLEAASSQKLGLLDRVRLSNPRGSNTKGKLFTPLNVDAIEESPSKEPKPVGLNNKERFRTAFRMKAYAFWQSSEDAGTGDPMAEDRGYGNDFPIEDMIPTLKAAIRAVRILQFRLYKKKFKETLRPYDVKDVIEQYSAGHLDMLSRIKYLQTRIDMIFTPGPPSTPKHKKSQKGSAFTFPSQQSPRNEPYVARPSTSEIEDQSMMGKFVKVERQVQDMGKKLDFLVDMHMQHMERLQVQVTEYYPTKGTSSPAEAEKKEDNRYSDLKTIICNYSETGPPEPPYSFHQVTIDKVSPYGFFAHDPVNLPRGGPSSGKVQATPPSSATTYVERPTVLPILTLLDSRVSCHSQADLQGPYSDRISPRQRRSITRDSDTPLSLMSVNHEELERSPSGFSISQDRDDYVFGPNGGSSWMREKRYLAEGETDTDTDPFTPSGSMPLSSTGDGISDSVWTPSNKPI

SMILES: COc1nc(N2CCC(OC)CC2)nc(OC)c1NC(=O)CCC(C)C
- max activation [1]: 132%
- EC50 [2]: 304 nM

SMILES: CCOC(=O)Nc1ccc(NCc2ccc(F)cc2)cc1N [EZOGABINE]
- Ratio (MDCK): 1.13
- IC50 [3]: 213000 nM
- CLint scaled [4]: < 8 mL/min/kg
- Papp at 2 h [5]: 34.2 ×10⁻⁶ cm/s

SMILES: COc1nc(N2CCC(OC)CC2)nc(OC)c1NC(=O)CC1CCCC1
- max activation [1]: 143%
- EC50 [2]: 343 nM

SMILES: COc1nc(N2C[C@@H]3C[C@H]2CO3)nc(OC)c1NC(=O)CC(C)(C)C
- max activation [1]: 101%
- EC50 [2]: 1890 nM

SMILES: COc1nc(N2CCOCC2)nc(OC)c1NC(=O)CC(C)(C)C
- Ratio (MDCK): 1.11
- max activation [1]: 95%
- EC50 [2]: 164 nM
- IC50 [3]: > 300000 nM
- CLint scaled [4]: < 10.4 mL/min/kg
- Papp at 2 h [5]: 25.9 ×10⁻⁶ cm/s

SMILES: COc1nc(N2CC(F)(F)C2)nc(OC)c1NC(=O)CC(C)(C)C
- Ratio (MDCK): 1.29
- max activation [1]: 103%
- EC50 [2]: 110 nM
- IC50 [3]: > 300000 nM
- CLint scaled [4]: 18.9 mL/min/kg
- Papp at 2 h [5]: 28 ×10⁻⁶ cm/s

SMILES: COc1nc(N2CCC(OC)CC2)nc(OC)c1NC(=O)CC(C)C
- max activation [1]: 138%
- EC50 [2]: 630 nM

SMILES: COc1nc(N2CCC(OC)CC2)nc(OC)c1NC(=O)CC1CCCCC1
- max activation [1]: 152%
- EC50 [2]: 162 nM

SMILES: COc1nc(N2CCCOCC2)nc(OC)c1NC(=O)CC(C)(C)C
- Ratio (MDCK): 1.25
- max activation [1]: 85%
- EC50 [2]: 62 nM
- IC50 [3]: > 300000 nM
- CLint scaled [4]: 24.4 mL/min/kg
- Papp at 2 h [5]: 20.2 ×10⁻⁶ cm/s

SMILES: COCCN(C)c1nc(OC)c(NC(=O)CC(C)(C)C)c(OC)n1
- Ratio (MDCK): 1.11
- max activation [1]: 166%
- EC50 [2]: 206 nM
- IC50 [3]: > 300000 nM
- CLint scaled [4]: 21 mL/min/kg

SMILES: COc1nc(N2CCSCC2)nc(OC)c1NC(=O)CC(C)(C)C
- max activation [1]: 92%
- EC50 [2]: 24 nM
- CLint scaled [4]: 69.6 mL/min/kg

SMILES: COc1nc(N2CCC(OC(C)C)CC2)nc(OC)c1NC(=O)CC(C)(C)C
- max activation [1]: 145%
- EC50 [2]: 358 nM

SMILES: COc1nc(N2CCC(OC)CC2)nc(OC)c1NC(=O)CCC1CCCC1
- Ratio (MDCK): 1.21
- max activation [1]: 126%
- EC50 [2]: 40 nM
- IC50 [3]: 80500 nM
- Papp at 2 h [5]: 15.2 ×10⁻⁶ cm/s
- Stability (Liver microsome): Unstable

SMILES: COc1nc(N2CCC(F)(F)CC2)nc(OC)c1NC(=O)CC(C)(C)C
- Ratio (MDCK): 1.29
- max activation [1]: 99%
- EC50 [2]: 50 nM
- IC50 [3]: > 300000 nM
- CLint scaled [4]: 21.6 mL/min/kg

SMILES: COc1nc(N2CC3(COC3)C2)nc(OC)c1NC(=O)CC(C)(C)C
- max activation [1]: 106%
- EC50 [2]: 9190 nM

SMILES: COc1nc(N2CC(OC)C2)nc(OC)c1NC(=O)CC(C)(C)C
- max activation [1]: 103%
- EC50 [2]: 961 nM

SMILES: COc1nc(N2CCCCC2)nc(OC)c1NC(=O)CC(C)(C)C
- Ratio (MDCK): 1.59
- max activation [1]: 182%
- EC50 [2]: 64 nM
- IC50 [3]: > 300000 nM
- CLint scaled [4]: 43.7 mL/min/kg
- Papp at 2 h [5]: 22.3 ×10⁻⁶ cm/s

Source: ChEMBL document CHEMBL3621090, “Discovery of a novel Kv7 channel opener as a treatment for epilepsy” (Bioorg Med Chem Lett, 2015)
